Data published in PubChem BioAssay (NCI).
Values joined by “and” are separate entries in the source; they are usually repeats but may differ in a detail not shown here. Equal values may be shown once.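 All cell lines were grown in 96-well plates and treated with compound for 48 hours. GI50 = concentration required for 50% inhibition of growth. TGI denotes the concentration required for complete inhibition of growth.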

Assays:
Test in all cases: NCI anticancer screen, dose series, 48 h
UO-31 renal = tested on: UO-31 renal
SR leukemia = tested on: SR leukemia
HCC-2998 colon = tested on: HCC-2998 colon
RXF 393 renal = tested on: RXF 393 renal
U251 CNS = tested on: U251 CNS
OVCAR-4 ovarian = tested on: OVCAR-4 ovarian
SK-MEL-5 melanoma = tested on: SK-MEL-5 melanoma
SF-268 CNS = tested on: SF-268 CNS
RPMI-8226 leukemia = tested on: RPMI-8226 leukemia
UACC-257 melanoma = tested on: UACC-257 melanoma

Row | SMILES | GI50 (UO-31 renal) | TGI (UO-31 renal) | GI50 (SR leukemia) | TGI (SR leukemia) | GI50 (HCC-2998 colon) | TGI (HCC-2998 colon) | GI50 (RXF 393 renal) | TGI (RXF 393 renal) | GI50 (U251 CNS) | TGI (U251 CNS) | GI50 (OVCAR-4 ovarian) | TGI (OVCAR-4 ovarian) | GI50 (SK-MEL-5 melanoma) | TGI (SK-MEL-5 melanoma) | GI50 (SF-268 CNS) | TGI (SF-268 CNS) | GI50 (RPMI-8226 leukemia) | TGI (RPMI-8226 leukemia) | GI50 (UACC-257 melanoma) | TGI (UACC-257 melanoma)
1 | CCN(CC)CCSCCCNc1c2ccc(Cl)cc2nc2ccc(OC)cc12 | 1270 nM | 3.29 µM | 976 nM | 4.84 µM | 1.02 µM | 2.42 µM | 925 nM | 2.38 µM | 1700 nM | 3.32 µM | 756 nM | 3.03 µM | 1800 nM | 3.24 µM | 1.06 µM | 3.01 µM | 1300 nM | 4.78 µM | 2060 nM | 3.85 µM
2 | CC(=O)Oc1ccc(C(c2ccc(OC(C)=O)cc2)c2ccccn2)cc1 | 21400 nM | > 100 µM | > 100000 nM | > 100 µM | 11.3 µM | > 100 µM | 3670 nM | 96.9 µM and > 95.7 µM |  | > 100 µM | 287 nM | 4.42 µM | 31800 nM | > 100 µM | > 87.9 µM | > 100 µM | 30300 nM | > 100 µM |  | > 100 µM
3 | c1ccc2c(c1)C1=NCCN1c1ccccc1-2 |  | 18.4 µM |  | 2.41 µM |  | 18.8 µM |  | 6.14 µM |  | 14 µM |  | 10.2 µM |  | 6.08 µM |  | 11 µM |  | 6.97 µM |  | 7.71 µM
4 | [Cl][Cd][Cl] | > 74000 nM and 74500 nM | 131 µM | 52300 nM and 6160 nM | 500 µM | 23.6 µM and 79 µM | > 63.5 µM and 158 µM | 50100 nM and 13600 nM | 41.2 µM | 14700 nM and 13600 nM | 20.3 µM and 40.1 µM | 7950 nM and 19600 nM and 8690 nM | 36.1 µM and 23.7 µM | 1180 nM and 3620 nM and 518 nM | 3.31 µM and 22.4 µM and 5.9 µM | 16.5 µM and 8.95 µM | 33.9 µM and 24.4 µM |  | 8.71 µM and 71.5 µM and 61.8 µM | 22000 nM and 27000 nM | 56.2 µM and 74.9 µM
5 | COC1OC2COC(c3ccccc3)OC2C(O)C1Br (configuration not stated) |  |  |  | > 100 µM |  | > 100 µM |  | > 100 µM |  | > 100 µM |  | > 100 µM |  | > 100 µM |  | > 100 µM |  | > 100 µM |  | > 100 µM
6 | Cn1c(=O)c(Oc2ccc(F)cc2F)cc2cnc(NCCS(C)(=O)=O)nc21 | > 25000 nM | > 25 µM | > 25000 nM | > 25 µM | > 25 µM | > 25 µM | > 25000 nM | > 25 µM | > 25000 nM | > 25 µM | > 25000 nM | > 25 µM | > 25000 nM | > 25 µM | > 25 µM | > 25 µM | > 25000 nM | > 25 µM | > 25000 nM | > 25 µM
7 | CC1=C(/C=C/C(C)=C/C=C/C(C)=C/CO)C(C)(C)CCC1 |  | 31.8 µM |  | 38.3 µM |  | 36.2 µM |  | 28.3 µM |  | 39 µM |  | > 100 µM |  | 32 µM |  | 52 µM |  |  |  | 84.4 µM
8 | O=C1C=CC(CC(=O)c2ccc3ccccc3c2)O1 (configuration not stated) |  | 39.2 µM |  | 83.1 µM |  | 31.1 µM |  | 36.6 µM |  | 32.1 µM |  | 63.7 µM |  | > 100 µM |  | 39.9 µM |  |  |  | > 100 µM
9 | O=C1OC(c2ccccc2)=N/C1=C\c1cccc(F)c1 |  | > 100 µM |  | 56.4 µM |  | > 100 µM |  | > 100 µM |  | > 100 µM |  | 94.9 µM |  | > 100 µM |  | > 100 µM |  | 50.1 µM |  | 88.2 µM
10 | COc1ccc(Nc2cc(C)nc(N3CCN(c4ccnc5cc(Cl)ccc45)CC3)n2)cc1 | 2240 nM | > 100 µM | 2680 nM | > 100 µM | 3.24 µM | 11.6 µM | 2790 nM | 21 µM | 3060 nM | 36.6 µM | 1760 nM | > 100 µM | 1670 nM | 3.35 µM | 4.7 µM | > 100 µM | 2180 nM | 8.91 µM | 3340 nM | > 100 µM
11 | COc1cc(Cl)cc(-c2nn(-c3cccc(NC(=O)Nc4ccc(Cl)c(C(F)(F)F)c4)c3)cc2-c2ccncc2)c1 | 1660 nM | 10.9 µM | 1080 nM | 4.38 µM | 2.91 µM | 9.02 µM | 1710 nM | 4.42 µM | 729 nM | 2.11 µM | 1800 nM | 28.8 µM | 1540 nM | 2.93 µM | 2.66 µM | 12.1 µM | 402 nM | 2.07 µM | 1890 nM | 4.93 µM
12 | Cn1cnc([N+](=O)[O-])c1Sc1ncn[nH]1 | 35200 nM | > 100 µM | 35100 nM | > 100 µM | > 100 µM | > 100 µM | 29000 nM | > 100 µM | > 100000 nM | > 100 µM | 72000 nM | > 100 µM | > 100000 nM | > 100 µM | > 100 µM | > 100 µM | 43900 nM | > 100 µM | 68200 nM | > 100 µM
13 | O=C(Nc1ccc(I)cc1F)c1cc(Cl)ccc1O | 235 nM | 1.65 µM | 531 nM | > 100 µM | 3.14 µM | 10.1 µM | 507 nM | 3.07 µM | 590 nM | > 100 µM | 356 nM | 6.4 µM | 234 nM | 0.596 µM | 0.507 µM | 7.06 µM | 280 nM | 1.28 µM | 467 nM | 3.99 µM
14 | OCCN1CCN(CC/C=C2\c3ccccc3Sc3ccc(Cl)cc32)CC1 | 2140 nM and 1960 nM | 7.66 µM and 6.24 µM | 1700 nM | 4.59 µM | 1.99 µM and 1.68 µM | 3.8 µM and 3.16 µM | 4160 nM | 11.4 µM | 2340 nM and 2460 nM | 5.96 µM and 6.4 µM | 8380 nM and 8180 nM | 20.7 µM and 21.1 µM | 1610 nM and 1670 nM | 3.01 µM and 3.04 µM | 2.58 µM and 4.5 µM | 10.9 µM and 15.1 µM | 1170 nM and 3120 nM | 3.11 µM and 10.8 µM | 1970 nM and 1710 nM | 4.18 µM and 3.17 µM
15 | Cc1nc(Nc2nc3ccccc3o2)nc(-c2cccc([N+](=O)[O-])c2)c1C(=O)Nc1ccc(F)c(Cl)c1 | 1870 nM | 7.09 µM | 2600 nM | 15.1 µM | 3.26 µM | > 100 µM | 2830 nM | > 100 µM | 2060 nM | 8.27 µM | 1620 nM | 35 µM | 1710 nM | 3.45 µM | 3.3 µM | > 100 µM | 724 nM | 4.26 µM | 2310 nM | 8.23 µM
16 | C[C@H]1C(=O)CC[C@]2(C)CCC(C(C)(C)O)CC12O (some centres not stated) |  | > 100 µM |  | > 100 µM |  | > 100 µM |  | > 100 µM |  | > 100 µM |  | > 100 µM |  | > 100 µM |  | > 100 µM |  | > 100 µM |  | > 100 µM
17 | COc1ccc(-c2nn(-c3cccc(NC(=O)c4ccc(N5CCOCC5)c(C(F)(F)F)c4)c3)cc2-c2ccncc2)cc1Cl | 20800 nM | > 50 µM | 1620 nM | > 50 µM | 14.1 µM | > 50 µM | 1350 nM | 23.3 µM | 1140 nM | > 50 µM | 36200 nM | > 50 µM | 6400 nM | > 50 µM | 13.3 µM | > 50 µM | 2060 nM | > 50 µM | > 50000 nM | > 50 µM
18 | CCn1c2ccccc2c2cc(C(O)c3cccc4ncccc34)ccc21 (configuration not stated) | 285 nM | > 100 µM | 24.8 nM |  | 0.257 µM | 15.7 µM | 51.8 nM |  | 41.1 nM | 3.56 µM | 318 nM | 87.3 µM | 46.5 nM | 1.57 µM | 0.068 µM | > 73.6 µM | 72.4 nM | 7.85 µM |  | 
19 | CNC(=O)OCC1C2=C(C(=O)C(C)=C(N)C2=O)N2CC3C(N3C)C12OC (configuration not stated) |  |  |  | > 100 µM |  | 24.8 µM |  | 57.1 µM |  | 45.7 µM |  | 33 µM |  | 23.8 µM |  |  |  | > 100 µM |  | 70.9 µM
20 | COc1ccc2c(c1OC)C(=O)c1cnccc1C2=O |  | > 100 µM |  | > 100 µM |  | > 100 µM |  | > 100 µM |  | > 100 µM |  | > 100 µM |  | > 100 µM |  |  |  | > 100 µM |  | > 100 µM
21 | CN1CC(=O)N(C)c2nc[nH]c2C1=O |  | > 100 µM |  | > 100 µM |  | > 100 µM |  | > 100 µM |  | > 100 µM |  | > 100 µM |  | > 100 µM |  | > 100 µM |  | > 100 µM |  | 
22 | O=C(/C=C1/Nc2ccc([N+](=O)[O-])cc2NC1O)c1cccc([N+](=O)[O-])c1 (configuration not stated) |  | > 100 µM |  | > 100 µM |  | > 100 µM |  | 65.4 µM |  | > 100 µM |  | 11.1 µM |  | > 100 µM |  | > 100 µM |  |  |  | > 100 µM
23 | CN1C(Cl)=NS(=O)(=O)c2ccccc21 |  | > 100 µM |  | > 100 µM |  | > 100 µM |  | > 100 µM |  | > 100 µM |  | > 100 µM |  | > 100 µM |  | > 100 µM |  |  |  | > 100 µM
24 | Cc1ccc(-c2nc(N3CCCNCC3)c3oc(-c4ccc(C)cc4)nc3n2)cc1 | 1380 nM | 2.68 µM | 213 nM | 0.575 µM | 32.3 µM | > 100 µM | 1650 nM | 3.14 µM | 1760 nM | 3.18 µM | 2110 nM | 4.67 µM |  |  | 1.77 µM | 3.48 µM | 1890 nM | 4.22 µM | 19800 nM | 41.1 µM
